According to BigSolDB 2.1:

CCOc1nc2cccc(C(=O)OC(C)OC(=O)OC3CCCCC3)c2n1Cc1ccc(-c2ccccc2-c2nn[nH]n2)cc1 (stereo not given)
solubility (mole fraction)
Settings	293.15 K	298.15 K	303.15 K	308.15 K	313.15 K	323.15 K	333.15 K	343.15 K
in acetone	0.00673	0.00783	0.00946	0.0111	0.0133	–	–	–
in acetonitrile	0.000582	–	0.000912	–	0.0016	0.00263	0.00441	–
in ethanol	–	–	0.00144	–	0.00235	0.00465	0.00824	0.0118
